Earlier results in patent publication US8030014B2, “Detecting agent and therapeutic agent for highly malignant breast cancer” (priority 2005, dated 2011).

Tested on: breast cancer
Settings: paclitaxel used in addition to adriamycin plus cyclophosphamide (AC); postoperative auxiliary chemotherapy

## CC(=O)O[C@H]1C(=O)[C@@]2(C)[C@H]([C@H](OC(=O)c3ccccc3)[C@]3(O)C[C@H](OC(=O)[C@H](O)[C@@H](NC(=O)c4ccccc4)c4ccccc4)C(C)=C1C3(C)C)[C@]1(OC(C)=O)CO[C@@H]1C[C@@H]2O [paclitaxel]
  lowering of annual mortality rate over AC therapy alone: 26%
